The test addresses IDO (Homo sapiens (Human), UniProt P14902). The test is described as follows: Kynurenine assay in IFN-γ-stimulated Hela cells. Format: cell-based. The settings on record: 20 h, read-out: Hela Kyurenine (IC50). As for the experimental part:
Reagents: Hela cells (ATCC, CCL-2)
IFNg (R&D, 28-IF-100)—resuspend at 10 ug/mL in PBS with 0.1% BSA 30% TCA
Ehrlich reagent (2% w/v p-dimethylaminobenzaldehyde in glacial acetic acid)
Cell Lines and Culture Conditions
Hela cancer cell lines were acquired from the American Type Culture Collection. Cells were maintained in phenol red free-RPMI1640 medium containing high glucose and L-glutamine (Invitrogen) supplemented with 10% fetal bovine serum (FBS; Invitrogen). Cell cultures were incubated at 37° C., 5% CO2, and 100% humidity.
Cell Treatment and Kynurenine Assay
Hela cells were seeded on 96-well plates (40,000 cells per well) and allowed to adhere for 5-6 hours. Cells were then treated with vehicle (DMSO) or with IDO inhibitor at a top dose of 30 μM (3-fold dilution all the way down to 1.5 nM). A final concentration of 100 ng/mL of human recombinant IFN-γ (R&D, 28-IF-100) was immediately added to the cells to stimulate IDO expression. Treated cells were then incubated for 20 hours at 37° C. At the end of the 20 h incubation, reactions were terminated by the addition of 30% TCA to each well. Plates were incubated for 30 minutes at 50° C. to hydrolyze N-formylkynurenine to kynurenine. Cells were centrifuged 10 minutes at 2400 rpm. 100 ul of supernatants were transferred to new 96 flat well plates and mixed with 100 ul Ehrlich reagent. The resulting solution was incubated 10 minutes at RT. Absorbance at 490 nm was read using Spectra Max 384 (Molecular Devices).

pIC50: −log10 of the molar value.

Sequence of IDO (P14902 whole entry): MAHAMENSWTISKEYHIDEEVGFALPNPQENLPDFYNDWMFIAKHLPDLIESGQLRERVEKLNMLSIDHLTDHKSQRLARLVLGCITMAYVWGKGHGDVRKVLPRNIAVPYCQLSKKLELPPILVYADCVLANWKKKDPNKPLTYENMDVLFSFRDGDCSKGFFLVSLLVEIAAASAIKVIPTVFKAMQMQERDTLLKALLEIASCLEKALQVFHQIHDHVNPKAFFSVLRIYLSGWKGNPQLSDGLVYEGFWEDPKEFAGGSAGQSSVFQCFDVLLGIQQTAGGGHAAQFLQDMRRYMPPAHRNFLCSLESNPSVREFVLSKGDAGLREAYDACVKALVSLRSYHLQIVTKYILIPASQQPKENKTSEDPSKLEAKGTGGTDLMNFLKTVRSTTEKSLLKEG

`CC(C)(C)c1ccccc1Oc1ccc(-c2ccc(C(=O)O)cc2)cc1NC(=O)Nc1ccccc1C(F)(F)F` [Example 210, 4′-(2-tert-butylphenoxy)-3′-(3-(2-(trifluoromethyl)phenyl)ureido) biphenyl-4-carboxylic acid]: the pIC50 is 5.81.

With `COc1cc(-c2ccc(Oc3ccccc3C(C)(C)C)c(NC(=O)Nc3ccccc3C)c2)ccc1C(=O)O` [Example 211, 4′-(2-tert-butylphenoxy)-3-methoxy-3′-(3-o-tolylureido) biphenyl-4-carboxylic acid], the pIC50 was 5.79.

Regarding `COc1cc(-c2ccc(Oc3ccccc3C(C)(C)C)c(NC(=O)Nc3cccc(C)c3)c2)ccc1C(=O)O` [Example 212, 4′-(2-tert-butylphenoxy)-3-methoxy-3′-(3-m-tolylureido) biphenyl-4-carboxylic acid], the pIC50 is 5.97.

With `CC(C)(C)c1ccccc1Oc1ccc(-c2ccc(C(=O)O)c(Cl)c2)cc1NC(=O)Nc1ccccc1C(F)(F)F` [Example 214, 4′-(2-tert-butylphenoxy)-3-chloro-3′-(3-(2-(trifluoromethyl)phenyl)ureido) biphenyl-4-carboxylic acid], the pIC50 was 6.82.

Consider `Cc1ccccc1NC(=O)Nc1cc(-c2ccc(C(=O)O)c(Cl)c2)ccc1Oc1ccccc1C(C)(C)C` [Example 216, 4′-(2-tert-butylphenoxy)-3-chloro-3′-(3-o-tolylureido) biphenyl-4-carboxylic acid], for which the negative logarithm of the IC50 (pIC50) is 5.96.

As for `CC(C)(C)c1ccccc1Oc1ccc(-c2ccc(C(=O)O)c(F)c2)cc1NC(=O)Nc1ccccc1Cl` [Example 217, 4′-(2-tert-butylphenoxy)-3′-(3-(2-chlorophenyl)ureido)-3-fluorobiphenyl-4-carboxylic acid], the pIC50 was 5.90.

Turning to `Cc1ccc(NC(=O)Nc2cc(-c3ccc(C(=O)O)c(F)c3)ccc2Oc2ccccc2C(C)(C)C)cc1` [Example 218, 4′-(2-tert-butylphenoxy)-3-fluoro-3′-(3-p-tolylureido) biphenyl-4-carboxylic acid], the negative logarithm of the IC50 (pIC50) is 6.19.

As to `CCNC(=O)Nc1cc(-c2cccc(C(=O)O)c2)ccc1Oc1ccccc1C(C)(C)C` [Example 220, 4′-(2-tert-butylphenoxy)-3′-(3-ethylureido) biphenyl-3-carboxylic acid], the pIC50 is 6.03.

Consider `CC(C)(C)c1ccccc1Oc1ccc(-c2cccc(C(=O)O)c2)cc1NC(=O)NC1CCCCC1` [Example 221, 4′-(2-tert-butylphenoxy)-3′-(3-cyclohexylureido) biphenyl-3-carboxylic acid], for which the pIC50 was 6.00.

In the case of `CC(C)(C)c1ccccc1Oc1ccc(-c2cc(F)cc(C(=O)O)c2)cc1NC(=O)Nc1ccc(OC(F)(F)F)cc1` [Example 222, 4′-(2-tert-butylphenoxy)-5-fluoro-3′-(3-(4-(trifluoromethoxy)phenyl)ureido) biphenyl-3-carboxylic acid], the pIC50 is 5.79.

In the case of `CC(C)(C)c1ccccc1Oc1ccc(-c2cccc(C(=O)O)c2)cc1NC(=O)Nc1ccccc1Cl` [Example 228, 4′-(2-tert-butylphenoxy)-3′-(3-(2-chlorophenyl)ureido)biphenyl-3-carboxylic acid], the pIC50 is 6.38.

For the molecule `CC(C)(C)c1ccccc1Oc1ccc(-c2cccc(C(=O)O)c2)cc1NC(=O)Nc1cccc(Cl)c1` [Example 231, 4′-(2-tert-butylphenoxy)-3′-(3-(3-chlorophenyl)ureido)biphenyl-3-carboxylic acid], the pIC50 was 6.14.

For `CC(C)(C)c1ccccc1Oc1ccc(-c2cccc(C(=O)O)c2)cc1NC(=O)Nc1ccccc1` [Example 234, 4′-(2-tert-butylphenoxy)-3′-(3-phenylureido) biphenyl-3-carboxylic acid], the negative logarithm of the IC50 (pIC50) is 5.73.

On to `Cc1ccc(NC(=O)Nc2cc(-c3cccc(C(=O)O)c3)ccc2Oc2ccccc2)cc1` [Example 235, 4′-phenoxy-3′-(3-p-tolylureido) biphenyl-3-carboxylic acid], for which the negative-log IC50 (pIC50) is 5.84.

As to `Cc1cccc(NC(=O)Nc2cc(-c3cc(Cl)cc(C(=O)O)c3)ccc2Oc2ccccc2C(C)(C)C)c1` [Example 239, 4′-(2-tert-butylphenoxy)-5-chloro-3′-(3-m-tolylureido) biphenyl-3-carboxylic acid], the negative logarithm of the IC50 (pIC50) was 5.99.

With `CC(C)(C)c1ccccc1Oc1ccc(-c2cc(Cl)cc(C(=O)O)c2)cc1NC(=O)Nc1ccc(C#N)cc1` [Example 240, 4′-(2-tert-butylphenoxy)-5-chloro-3′-(3-(4-cyanophenyl)ureido)biphenyl-3-carboxylic acid], the negative logarithm of the IC50 (pIC50) was 6.27.

On to `CC(C)(C)c1ccccc1Oc1ccc(-c2cc(Cl)cc(C(=O)O)c2)cc1NC(=O)Nc1ccc(C(F)(F)F)cc1` [Example 241, 4′-(2-tert-butylphenoxy)-5-chloro-3′-(3-(4-(trifluoromethyl)phenyl)ureido) biphenyl-3-carboxylic acid], for which the pIC50 is 5.98.

As for `O=C(Nc1ccccc1Cl)Nc1cc(-c2cccc(C(=O)O)c2)ccc1Oc1ccc(Cl)cc1` [Example 242, 4′-(4-chlorophenoxy)-3′-(3-(2-chlorophenyl)ureido)biphenyl-3-carboxylic acid], the pIC50 is 5.94.

Regarding `O=C(Nc1ccc(OC(F)(F)F)cc1)Nc1cc(-c2cccc(C(=O)O)c2)ccc1Oc1ccc(Cl)cc1` [Example 243, 4′-(4-chlorophenoxy)-3′-(3-(4-(trifluoromethoxy)phenyl)ureido) biphenyl-3-carboxylic acid], the negative-log IC50 (pIC50) was 5.74.

On to `Cc1ccccc1NC(=O)Nc1cc(-c2cccc(C(=O)O)c2)ccc1Oc1cccc(Cl)c1` [Example 244, 4′-(3-chlorophenoxy)-3′-(3-o-tolylureido) biphenyl-3-carboxylic acid], for which the negative-log IC50 (pIC50) is 6.08.

`Cc1ccc(NC(=O)Nc2cc(-c3cccc(C(=O)O)c3)ccc2Oc2c(Cl)cccc2Cl)cc1` [Example 247, 4′-(2,6-dichlorophenoxy)-3′-(3-p-tolylureido) biphenyl-3-carboxylic acid]: the pIC50 was 5.87.

Take `Cc1ccc(NC(=O)Nc2cc(-c3cccc(C(=O)O)c3)ccc2Oc2ccc(Cl)cc2)cc1` [Example 248, 4′-(4-chlorophenoxy)-3′-(3-p-tolylureido) biphenyl-3-carboxylic acid]: the pIC50 is 5.83.

Consider `Cc1cccc(NC(=O)Nc2cc(-c3cccc(C(=O)O)c3)ccc2Oc2ccc(Cl)cc2)c1` [Example 249, 4′-(4-chlorophenoxy)-3′-(3-m-tolylureido) biphenyl-3-carboxylic acid], for which the pIC50 was 5.59.

As to `O=C(Nc1cc(-c2cc(Cl)cc(C(=O)O)c2)ccc1Oc1ccccc1)Nc1ccccc1C(F)(F)F` [Example 250, 5-chloro-4′-phenoxy-3′-(3-(2-(trifluoromethyl)phenyl)ureido) biphenyl-3-carboxylic acid], the negative logarithm of the IC50 (pIC50) is 5.97.

Take `Cc1cccc(NC(=O)Nc2cc(-c3cc(F)cc(C(=O)O)c3)ccc2Oc2ccccc2C(C)(C)C)c1` [Example 251, 4′-(2-tert-butylphenoxy)-5-fluoro-3′-(3-m-tolylureido) biphenyl-3-carboxylic acid]: the negative logarithm of the IC50 (pIC50) was 6.13.

In the case of `Cc1ccc(NC(=O)Nc2cc(-c3cc(F)cc(C(=O)O)c3)ccc2Oc2ccccc2C(C)(C)C)cc1` [Example 252, 4′-(2-tert-butylphenoxy)-5-fluoro-3′-(3-p-tolylureido) biphenyl-3-carboxylic acid], the negative-log IC50 (pIC50) was 6.18.

Source of the values: patent US9765018B2, “IDO inhibitors” (BRISTOL-MYERS SQUIBB COMPANY, priority 2013, dated 2017).
